Laboratory results taken from patent US8557864B2, “Agent having neurotrophic factor-like activity” (Nagoya Industrial Science Research Institute, priority 2007, dated 2013).

What was measured:
Format in all cases: in vivo
[1] = system: mice under chronic mild stress; assay: Burying the glass-marbles test, compound given at the same time as stress; details: 20, 100 and 500 μg/kg intraperitoneally once per day with stress; stressed 3 week- and 1 week-administration groups
Method: (§1) Mice under established chronic mild stress (hereinafter referred to as “stress”) were used for a depression and anxiety disorder-like model animal. Stress was applied as follows. 7-week-old male ddY strain mice fed in one cage for 4 mice were used and first subjected to forced swimming for 15 minutes. Then, the mice were fed in a sloped cage for 2 days, and then rested in a normal cage for 1 day. Then, the mice were fed in a dirt cage moisturized with 200 mL of water for 1 day and then rested in a normal cage for 1 day. Then, the mice were fed in a rotational cage that rotated at 180 rpm for 1 day, and then rested in a normal cage for 1 day. […] For 0 μg/kg administration examples of controls, a phosphoric acid buffer containing 0.1% DMSO (controls were expressed as “PBS” or “0 μg/kg” in the figure shown below) was administered in an amount of 0.25 mL to each of a stressed example and a non-stressed example. […]
Tips were bedded so as to have a height of 5 cm in a box with […] and 25 glass marbles (1.6 cm in diameter) were placed thereon at 5 cm-interval and behaviors of mice were observed. […] Since a mouse under stress having an anxiety symptom (condition) takes such a behavior as burying glass marbles, a level of the anxiety symptom can be evaluated from the number of buried glass marbles.

[2] = system: mice under chronic mild stress; assay: Elevated plus maze test, compound given at the same time as stress; details: 20, 100 and 500 μg/kg intraperitoneally with stress, 3 week and 1 week groups
Method: as §1
In this test, an anxiety level can be evaluated from the time for being the open arm, and a behavior amount can be evaluated from the number of times of entering the closed arm. From the evaluations, when a mouse has an anxiety symptom (condition), the time for being in the open arm […], and thus, a level of the anxiety symptom (condition) can be evaluated from the length of the time. […]

[3] = system: mice under chronic mild stress; assay: Tail suspension test after completion of stress
Method: A site of 1 cm from the tip of the tail of a mouse was grasped by a hand, being apart from a floor from 10 cm, and an immobility time in suspension for 6 minutes was measured for 2 hours. Since the immobility time prolongs when the mouse has a depressive symptom (condition), a level of the depressive symptom (condition) can be evaluated from the length of the immobility time. FIGS. 6 and 7 show the results.
Example 2 is a behavior test in which the compound 8 was administered to a mouse as well as stress was applied and a suppression effect of the compound 8 on depressive and anxiety symptoms of the mouse was examined. On the other hand, the present example is a behavior test in which only stress was applied for 3 weeks without administering the compound 8 and stress was completed and a therapeutic effect of the compound 8 on depressive and anxiety symptoms of a mouse after removing stress was examined. Stress was applied to a mouse in the same manner as in Example 2. […]

CCCCCCC/C=C/C(=O)OCC [Compound 8, trans-2-decenoic acid ethyl ester]
no significant difference: number of buried glass marbles, stressed vs non-stressed example [1] | time for being in open arm, stressed vs non-stressed example [2] | number of times of entering closed arm (behavior amount) ([2]; vs control (PBS) and stressed vs non-stressed) | immobility time, stressed vs non-stressed example ([3]; 500 μg/kg, 1 week-administration groups after completion of stress) | immobility time, stressed vs non-stressed example ([3]; all administration examples, 2 week-administration groups after completion of stress)
